According to patent US20150031674A1, “SERINE/THREONINE KINASE INHIBITORS” (GENENTECH, INC., priority 2013, published 2015):
pKi: −log10 of the molar value.

Molecular target: human recombinant PAK1-KD protein (Homo sapiens, UniProt Q13153)
Experiment: PAK1-KD (Kinase Domain) IC50 Zlyte Assay (FRET peptide substrate phosphorylation)
Conditions: Z'-LYTE, Biological Example 1
Description: PAK1-KD (Kinase Domain) IC50 Zlyte Assay Protocol
Activity of human recombinant PAK1-KD protein may be assessed in vitro by assay of the phosphorylation of a FRET peptide substrate. Catalytically active human recombinant PAK1-KD protein is obtained by purification from Tini cells infected with a human PAK1-KD recombinant baculovirus expression vector.
The activity/inhibition of PAK1-KD was estimated by measuring the phosphorylation of a FRET peptide substrate (Ser/Thr19) labeled with Coumarin and Fluorescein using Z′-LYTE™ assay (Invitrogen). The peptide substrate is a consensus sequence ([sequence]) based on various PAK substrates reported in the scientific literature. […] Incubations were carried out at 22° C. in black polypropylene 384-well plates (Corning Costar).

Chain of human recombinant PAK1-KD protein (Q13153 270-521 limits assumed): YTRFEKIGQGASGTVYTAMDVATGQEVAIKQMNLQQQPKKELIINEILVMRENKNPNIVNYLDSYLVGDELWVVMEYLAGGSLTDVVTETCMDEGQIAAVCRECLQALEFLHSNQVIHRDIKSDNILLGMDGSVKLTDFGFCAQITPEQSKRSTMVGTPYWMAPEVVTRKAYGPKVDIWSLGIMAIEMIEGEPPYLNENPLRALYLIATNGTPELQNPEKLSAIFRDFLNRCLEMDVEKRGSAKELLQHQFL

Structure (SMILES) | pKi
Cc1cccc(-c2ccc(-c3cc4cnc(NC5COC5)nc4n(CCCCO)c3=O)c(C)c2)n1 [Example I-81, 8-(4-Hydroxybutyl)-6-[2-methyl-4-(6-methyl-2-pyridyl)phenyl]-2-(oxetan-3-ylamino)pyrido[2,3-d]pyrimidin-7-one] | 8.19
CCNc1ncc2cc(-c3ccc(-c4cncc(C)n4)cc3Cl)c(=O)n(C[C@H]3[C@@H]4CNC[C@@H]43)c2n1 [Example I-82, 8-((1R,5S,6R)-3-Azabicyclo[3.1.0]hexan-6-ylmethyl)-6-(2-chloro-4-(6-methylpyrazin-2-yl)phenyl)-2-(ethylamino)pyrido[2,3-d]pyrimidin-7(8H)-one] | 8.02
CCNc1ncc2cc(-c3ccc(-c4cncc(C)n4)cc3Cl)c(=O)n(CC[C@H](O)CO)c2n1 [Example I-83, (S)-6-(2-Chloro-4-(6-methylpyrazin-2-yl)phenyl)-8-(3,4-dihydroxybutyl)-2-(ethylamino)pyrido[2,3-d]pyrimidin-7(8H)-one] | 6.97
CNc1ncc2cc(-c3ccc(-c4cncc(C)n4)cc3Cl)c(=O)n(CC(=O)N3CCNCC3)c2n1 [Example I-84, 6-(2-Chloro-4-(6-methylpyrazin-2-yl)phenyl)-2-(methylamino)-8-(2-oxo-2-(piperazin-1-yl)ethyl)pyrido[2,3-d]pyrimidin-7(8H)-one] | 7.23
CNc1ncc2cc(-c3ccc(-c4cncc(C)n4)cc3Cl)c(=O)n(CC(=O)NCCO)c2n1 [Example I-85, 2-[6-[2-Chloro-4-(6-methylpyrazin-2-yl)phenyl]-2-(methylamino)-7-oxo-pyrido[2,3-d]pyrimidin-8-yl]-N-(2-hydroxyethyl)acetamide] | 7.03
CNc1ncc2cc(-c3ccc(-c4cncc(C)n4)cc3Cl)c(=O)n(CC(=O)N(C)C)c2n1 [Example I-86, 2-[6-[2-Chloro-4-(6-methylpyrazin-2-yl)phenyl]-2-(methylamino)-7-oxo-pyrido[2,3-d]pyrimidin-8-yl]-N,N-dimethyl-acetamide] | 6.91
CNC(=O)CCCn1c(=O)c(-c2ccc(-c3cccc(C)n3)cc2C)cc2cnc(NC3COC3)nc21 [Example I-87, N-methyl-4-[6-[2-methyl-4-(6-methyl-2-pyridyl)phenyl]-2-(oxetan-3-ylamino)-7-oxo-pyrido[2,3-d]pyrimidin-8-yl]butanamide] | 7.52
Cc1cncc(-c2ccc(-c3cc4cnc(N)nc4n(CCCCCN)c3=O)c(Cl)c2)n1 [Example I-88, 2-Amino-8-(5-aminopentyl)-6-[2-chloro-4-(6-methylpyrazin-2-yl)phenyl]pyrido[2,3-d]pyrimidin-7-one] | 6.50
CCNc1ncc2cc(-c3ccc(-c4cncc(C)n4)cc3Cl)c(=O)n(CCN3CCNCC3=O)c2n1 [Example I-90, 6-[2-Chloro-4-(6-methylpyrazin-2-yl)phenyl]-2-(ethylamino)-8-[2-(2-oxopiperazin-1-yl)ethyl]pyrido[2,3-d]pyrimidin-7-one] | 6.49
CCNc1ncc2cc(-c3ccc(-c4cccc(C)n4)cc3C)c(=O)n(CC(=O)N3CCNCC3)c2n1 [Example I-93, 2-(Ethylamino)-6-[2-methyl-4-(6-methyl-2-pyridyl)phenyl]-8-(2-oxo-2-piperazin-1-yl-ethyl)pyrido[2,3-d]pyrimidin-7-one] | 7.54
Cc1cccc(-c2ccc(-c3cc4cnc(NC5COC5)nc4n(CC(=O)N4CCNCC4)c3=O)c(Cl)c2)n1 [Example I-94, 6-[2-Chloro-4-(6-methyl-2-pyridyl)phenyl]-2-(oxetan-3-ylamino)-8-(2-oxo-2-piperazin-1-yl-ethyl)pyrido[2,3-d]pyrimidin-7-one] | 7.80
CNc1ncc2cc(-c3ccc(-c4cccc(C)n4)cc3C)c(=O)n(CC(=O)N3CCNCC3)c2n1 [Example I-95, 2-(Methylamino)-6-[2-methyl-4-(6-methyl-2-pyridyl)phenyl]-8-(2-oxo-2-piperazin-1-yl-ethyl)pyrido[2,3-d]pyrimidin-7-one] | 7.56
CNc1ncc2cc(-c3ccc(-c4cccc(C)n4)cc3Cl)c(=O)n(CCOCCN)c2n1 [Example I-96, 8-[2-(2-Aminoethoxy)ethyl]-[2-chloro-4-(6-methyl-2-pyridyl)phenyl]-2-(methylamino)pyrido[2,3-d]pyrimidin-7-one] | 8.85
CNc1ncc2cc(-c3ccc(-c4cccc(C)n4)cc3C)c(=O)n(CCOCCN)c2n1 [Example I-97, 8-[2-(2-Aminoethoxy)ethyl]-2-(methylamino)-6-[2-methyl-4-(6-methyl-2-pyridyl)phenyl]pyrido[2,3-d]pyrimidin-7-one] | 8.44
Cc1cncc(-c2ccc(-c3cc4cnc(NC(C)C)nc4n(CCC4CCNC4=O)c3=O)c(Cl)c2)n1 (centres unmarked) [Example I-100, 6-[2-Chloro-4-(6-methylpyrazin-2-yl)phenyl]-2-(isopropylamino)-8-[2-(2-oxopyrrolidin-3-yl)ethyl]pyrido[2,3-d]pyrimidin-7-one] | 7.73
CCNc1ncc2cc(-c3ccc(-c4cncc(C)n4)cc3Cl)c(=O)n(CC3(O)CCN(C)CC3)c2n1 [Example I-105, 6-[2-Chloro-4-(6-methylpyrazin-2-yl)phenyl]-2-(ethylamino)-8-[(4-hydroxy-1-methyl-4-piperidyl)methyl]pyrido[2,3-d]pyrimidin-7-one] | 6.94

Structure (SMILES) | pKi
Cc1cccc(-c2ccc(-c3cc4cnc(NC5COC5)nc4n(CC(=O)N4CCNCC4)c3=O)c(C)c2)n1 [Example I-106, 6-[2-Methyl-4-(6-methyl-2-pyridyl)phenyl]-2-(oxetan-3-ylamino)-8-(2-oxo-2-piperazin-1-yl-ethyl)pyrido[2,3-d]pyrimidin-7-one] | 7.26
CNc1ncc2cc(-c3ccc(-c4cccc(C)n4)cc3Cl)c(=O)n(CC(=O)N3CCNCC3)c2n1 [Example I-107, 6-[2-Chloro-4-(6-methyl-2-pyridyl)phenyl]-2-(methylamino)-8-(2-oxo-2-piperazin-1-yl-ethyl)pyrido[2,3-d]pyrimidin-7-one] | 7.84
CNc1ncc2cc(-c3ccc(-c4cncc(C)n4)cc3Cl)c(=O)n(CCC3CNC(=O)C3)c2n1 (centres unmarked) [Example I-109, 6-[2-Chloro-4-(6-methylpyrazin-2-yl)phenyl]-2-(methylamino)-8-[2-(5-oxopyrrolidin-3-yl)ethyl]pyrido[2,3-d]pyrimidin-7-one] | 7.36
CCNc1ncc2cc(-c3ccc(-c4cncc(C)n4)cc3Cl)c(=O)n(CCOC3CC(N)C3)c2n1 (centres unmarked) [Example I-117, 8-(2-(3-Aminocyclobutoxy)ethyl)-6-(2-chloro-4-(6-methylpyrazin-2-yl)phenyl)-2-(ethylamino)-pyrido[2,3-d]pyrimidin-7(8H)-one] | 8.43
CCNc1ncc2cc(-c3ccc(-c4cccc(C)n4)cc3Cl)c(=O)n(CC(=O)N3CCOCC3)c2n1 [Example I-120, 6-[2-chloro-4-(6-methyl-2-pyridyl)phenyl]-2-(ethylamino)-8-(2-morpholino-2-oxo-ethyl)pyrido[2,3-d]pyrimidin-7-one] | 7.68
CCNc1ncc2cc(-c3ccc(-c4cccc(C)n4)cc3Cl)c(=O)n(C3COC4(CCNC4)C3)c2n1 (centres unmarked) [Example I-121, 6-[2-Chloro-4-(6-methyl-2-pyridyl)phenyl]-2-(ethylamino)-8-(1-oxa-7-azaspiro[4.4]nonan-3-yl)pyrido[2,3-d]pyrimidin-7-one] | 8.43
CCNc1ncc2cc(-c3ccc(-c4cccc(C)n4)cc3C)c(=O)n(C3COC4(CCNC4)C3)c2n1 (centres unmarked) [Example I-122, 2-(Ethylamino)-6-[2-methyl-4-(6-methyl-2-pyridyl)phenyl]-8-(1-oxa-7-azaspiro[4.4]nonan-3-yl)pyrido[2,3-d]pyrimidin-7-one] | 8.35
CCNc1ncc2cc(-c3ccc(-c4cccc(C)n4)cc3Cl)c(=O)n(CC[C@H](O)CO)c2n1 [Example I-123, 6-[2-Chloro-4-(6-methyl-2-pyridyl)phenyl]-8-[(3S)-3,4-dihydroxybutyl]-2-(ethylamino)pyrido[2,3-d]pyrimidin-7-one] | 8.15
CCNc1ncc2cc(-c3ccc(-c4cncc(C)n4)cc3Cl)c(=O)n(CC3C4CN(C)CC43)c2n1 (centres unmarked) [Example I-128, 6-[2-chloro-4-(6-methylpyrazin-2-yl)phenyl]-2-(ethylamino)-8-[(3-methyl-3-azabicyclo[3.1.0]hexan-6-yl)methyl]pyrido[2,3-d]pyrimidin-7-one] | 7.93
CCc1cc(-c2cncc(C)n2)ccc1-c1cc2cnc(NC)nc2n(CCOCCN)c1=O [Example I-129, 8-[2-(2-aminoethoxy)ethyl]-6-[2-ethyl-4-(6-methylpyrazin-2-yl)phenyl]-2-(methylamino)pyrido[2,3-d]pyrimidin-7-one] | 7.56
CCNc1ncc2cc(-c3ccc(-c4cncc(C)n4)cc3Cl)c(=O)n(CCN3CCNC(=O)C3)c2n1 [Example I-130, 6-[2-chloro-4-(6-methylpyrazin-2-yl)phenyl]-2-(ethylamino)-8-[2-(3-oxopiperazin-1-yl)ethyl]pyrido[2,3-d]pyrimidin-7-one] | 7.28
CCc1cc(-c2cncc(C)n2)ccc1-c1cc2cnc(NC)nc2n(CCCN)c1=O [Example I-131, 8-(3-aminopropyl)-6-[2-ethyl-4-(6-methylpyrazin-2-yl)phenyl]-2-(methylamino)pyrido[2,3-d]pyrimidin-7-one] | 7.49
CNc1ncc2cc(-c3ccc(-c4cccc(C)n4)cc3C)c(=O)n(CCCO)c2n1 [Example I-132, 8-(3-hydroxypropyl)-2-(methylamino)-6-[2-methyl-4-(6-methyl-2-pyridyl)phenyl]pyrido[2,3-d]pyrimidin-7-one] | 7.84
Cc1cccc(-c2ccc(-c3cc4cnc(NC5COC5)nc4n(CC[C@H]4OC[C@@H](N)CO4)c3=O)c(Cl)c2)n1 [Example I-133] | 9.05
CNc1ncc2cc(-c3ccc(-c4cccc(C)n4)cc3Cl)c(=O)n(CC[C@H]3OC[C@@H](N)CO3)c2n1 [Example I-134, 8-[2-(5-amino-1,3-dioxan-2-yl)ethyl]-6-[2-chloro-4-(6-methyl-2-pyridyl)phenyl]-2-(methylamino)pyrido[2,3-d]pyrimidin-7-one] | 8.46
Cc1cccc(-c2ccc(-c3cc4cnc(NC5COC5)nc4n(CC[C@H]4OC[C@@H](N)CO4)c3=O)c(Cl)c2)n1 [Example I-135, 8-[2-(5-amino-1,3-dioxan-2-yl)ethyl]-6-[2-chloro-4-(6-methyl-2-pyridyl)phenyl]-2-(oxetan-3-ylamino)pyrido[2,3-d]pyrimidin-7-one] | 9.18
